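Interpolation was linear, between the two tested concentrations surrounding the appropriate level; five concentrations were tested over 48 hours in 96-well plates. TGI: total growth inhibition.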
Assays:
Test in all cases: NCI tumour cell line growth inhibition, 48 h
SF-268 CNS = test system: SF-268 CNS
KM12 colon = test system: KM12 colon
SNB-75 CNS = test system: SNB-75 CNS
RXF-631 renal = test system: RXF-631 renal
NCI-H522 lung = test system: NCI-H522 lung
K-562 leukemia = test system: K-562 leukemia
DMS 114 small cell lung = test system: DMS 114 small cell lung
HOP-92 NSCLC = test system: HOP-92 NSCLC
MOLT-4 leukemia = test system: MOLT-4 leukemia
786-0 renal = test system: 786-0 renal
HCT-116 colon = test system: HCT-116 colon
OVCAR-3 ovarian = test system: OVCAR-3 ovarian
HOP-62 NSCLC = test system: HOP-62 NSCLC
HCC-2998 colon = test system: HCC-2998 colon
SNB-19 CNS = test system: SNB-19 CNS
SF-539 CNS = test system: SF-539 CNS
NCI-H460 lung = test system: NCI-H460 lung
KM20L2 colon = test system: KM20L2 colon
MALME-3M melanoma = test system: MALME-3M melanoma
SW-620 colon = test system: SW-620 colon
HT29 colon = test system: HT29 colon
TK-10 renal = test system: TK-10 renal
HOP-18 NSCLC = test system: HOP-18 NSCLC
M19-MEL melanoma = test system: M19-MEL melanoma
OVCAR-8 ovarian = test system: OVCAR-8 ovarian
SN12C renal = test system: SN12C renal
NCI-H23 lung = test system: NCI-H23 lung
UACC-257 melanoma = test system: UACC-257 melanoma
OVCAR-4 ovarian = test system: OVCAR-4 ovarian
HCT-15 colon = test system: HCT-15 colon
SNB-78 CNS = test system: SNB-78 CNS
EKVX NSCLC = test system: EKVX NSCLC
SK-MEL-5 melanoma = test system: SK-MEL-5 melanoma
RPMI-8226 leukemia = test system: RPMI-8226 leukemia
SK-OV-3 ovarian = test system: SK-OV-3 ovarian
ACHN renal = test system: ACHN renal
SR leukemia = test system: SR leukemia
HL-60(TB) leukemia = test system: HL-60(TB) leukemia
LXFL 529 NSCLC = test system: LXFL 529 NSCLC
M14 melanoma = test system: M14 melanoma
NCI-H226 lung = test system: NCI-H226 lung
IGROV1 ovarian = test system: IGROV1 ovarian
DLD-1 colon = test system: DLD-1 colon
CCRF-CEM leukemia = test system: CCRF-CEM leukemia
RXF 393 renal = test system: RXF 393 renal
UO-31 renal = test system: UO-31 renal
UACC-62 melanoma = test system: UACC-62 melanoma
CAKI-1 renal = test system: CAKI-1 renal
U251 CNS = test system: U251 CNS
A498 renal = test system: A498 renal
SF-295 CNS = test system: SF-295 CNS
OVCAR-5 ovarian = test system: OVCAR-5 ovarian
A549 NSCLC = test system: A549 NSCLC
COLO 205 colon = test system: COLO 205 colon
SK-MEL-28 melanoma = test system: SK-MEL-28 melanoma
LOX IMVI melanoma = test system: LOX IMVI melanoma
MDA-N = test system: MDA-N
DU-145 prostate = test system: DU-145 prostate
MCF7 breast = test system: MCF7 breast
SK-MEL-2 melanoma = test system: SK-MEL-2 melanoma
PC-3 prostate = test system: PC-3 prostate
NCI/ADR-RES ovarian = test system: NCI/ADR-RES ovarian
T-47D breast = test system: T-47D breast
HS 578T breast = test system: HS 578T breast
MDA-MB-231 breast = test system: MDA-MB-231 breast
MDA-MB-435 = test system: MDA-MB-435
BT-549 breast = test system: BT-549 breast
DMS 273 small cell lung = test system: DMS 273 small cell lung

Measured: TGI

Cc1c(C)c2ccc3oc4ccccc4c3c2oc1=O
not listed: MDA-N | DU-145 prostate | MCF7 breast | SK-MEL-2 melanoma | PC-3 prostate | NCI/ADR-RES ovarian | T-47D breast | HS 578T breast | MDA-MB-231 breast | MDA-MB-435 | BT-549 breast | DMS 273 small cell lung
> 100 µM: all other assays above

CCOC(=O)c1nc2cc(C(F)(F)F)ccc2nc1Oc1ccc(C#N)cc1
not listed: RXF-631 renal | DMS 114 small cell lung | HOP-62 NSCLC | KM20L2 colon | HT29 colon | HOP-18 NSCLC | M19-MEL melanoma | NCI-H23 lung | SNB-78 CNS | SK-OV-3 ovarian | LXFL 529 NSCLC | DLD-1 colon | DMS 273 small cell lung
> 100 µM: all other assays above

O=C(CCC(=O)Nc1ccc(Cl)c(Cl)c1)Cc1nc2ccccc2o1
not listed: DLD-1 colon | MDA-N | DU-145 prostate | MCF7 breast | PC-3 prostate | NCI/ADR-RES ovarian | T-47D breast | HS 578T breast | MDA-MB-231 breast | MDA-MB-435 | BT-549 breast
> 100 µM: all other assays above

From PubChem BioAssay (NCI)
